What all share (details): stereoisomer not certain
A short description of data set [1]: RP, Phenomenex Luna Omega Polar C18, 100 × 2.1 mm, 1.6 µm, 40 °C, 0.5 mL/min, estimated dead time 0.44 min; A: water + 0.5% formic acid; B: acetonitrile + 0.5% formic acid; gradient (min/%B) 0/5 3/50 3.1/100 5/100 5.1/5 7/5.
Data set [2] is described as follows: RP, Waters ACQUITY UPLC BEH Shield RP18, 100 × 2.1 mm, 1.7 µm, 30 °C, 0.6 mL/min, estimated dead time 0.37 min; A: water + 0.1% formic acid, pH 3; B: acetonitrile + 0.1% formic acid, pH 3; gradient (min/%B) 0/0 2/0 7/10 22/95 22.1/0 26/0.
A short description of data set [3]: RP, Phenomenex Luna C18, 150 × 4.6 mm, 3 µm, 25 °C, 0.5 mL/min, estimated dead time 3.2 min; A: water + 0.1% formic acid, pH 3; B: acetonitrile + 0.1% formic acid, pH 3; gradient (min/%B) 0/0 30/30 35/40 50/80 52/80 60/0 65/0.
The nature of data set [4]: RP, Agilent ZORBAX Eclipse XDB-C18, 100 × 2.1 mm, 1.8 µm, 50 °C, 0.4 mL/min, estimated dead time 0.55 min; A: water + 0.1% formic acid, pH 3; B: methanol + 0.1% formic acid, pH 3; gradient (min/%B) 0/2 10/100 14.5/100 14.51/2 16.5/2.
Data set [5] in a line: RP, 50 × 0.5 mm, 2.7 µm, 35 °C, 0.01 mL/min, estimated dead time 0.62 min; A: water + 0.1% formic acid, pH 3; B: acetonitrile + 0.1% formic acid, pH 3; gradient (min/%B) 0/5 12/95 14/95 16/5.
The nature of data set [6]: RP, Waters ACQUITY UPLC BEH C18, 100 × 2.1 mm, 1.7 µm, 65 °C, 0.4 mL/min, estimated dead time 0.55 min; A: water + 0.1% formic acid, pH 3; B: 80% acetonitrile + 20% acetone + 0.1% formic acid, pH 3; gradient (min/%B) 0/0 5/100 5.5/0 6/0.
Data set [7] is described as follows: RP, Phenomenex Synergi Hydro-RP, 150 × 2 mm, 4 µm, 30 °C, 0.5 mL/min, estimated dead time 0.6 min; A: water + 0.1% formic acid, pH 3; B: acetonitrile + 0.1% formic acid, pH 3; gradient (min/%B) 0/5 1/5 35/45 40/100 45/100.
Data set [8] is described as follows: RP, Waters ACQUITY UPLC HSS T3, 100 × 2.1 mm, 1.8 µm, 30 °C, 0.4 mL/min, estimated dead time 0.55 min; A: water + 0.1% formic acid, pH 3; B: acetonitrile + 0.1% formic acid, pH 3; gradient (min/%B) 0/0 2/0 15/100 22/100 22.1/0 26/0.
The nature of data set [9]: RP, 100 × 0.5 mm, 2.7 µm, 45 °C, 0.015 mL/min, estimated dead time 0.83 min; A: water + 0.9% formic acid; B: acetonitrile + 0.9% formic acid; gradient (min/%B) 0/1 0.5/1 4/95 4.5/1 5/1.
Data set [10] is described as follows: RP, Agilent ZORBAX RRHD Eclipse Plus C18, 50 × 2.1 mm, 1.8 µm, 30 °C, 0.4 mL/min, estimated dead time 0.28 min; A: water + 0.1% formic acid, pH 3; B: acetonitrile + 0.1% formic acid, pH 3; gradient (min/%B) 0/1 5/10 8/25 9.1/99 10/99 12/1.
Data set [11] is described as follows: RP, Phenomenex Luna Omega Polar C18, 100 × 2.1 mm, 1.6 µm, 40 °C, 0.5 mL/min, estimated dead time 0.44 min; A: water + 0.1% formic acid + 10 mM ammonium formate; B: acetonitrile; gradient (min/%B) 0/5 8/20 10/100 12/100 12.1/5 14/5.
The nature of data set [12]: RP, Waters Atlantis T3, 100 × 2.1 mm, 3 µm, 40 °C, 0.3 mL/min, estimated dead time 0.73 min; A: water + 0.1% trifluoroacetic acid, pH 2; B: acetonitrile + 0.1% trifluoroacetic acid, pH 2; gradient (min/%B) 0/10 1/10 6/40 7/50 8/50 14/70 16/80 20/10 25/10.
Data set [13] is described as follows: RP, Phenomenex Synergi Hydro-RP, 250 × 2 mm, 4 µm, 25 °C, 0.2 mL/min, estimated dead time 2.5 min; A: water + 0.1% formic acid, pH 3; B: acetonitrile + 0.1% formic acid, pH 3; gradient (min/%B) 0/0.5 7/0.5 12/12.5 25/16.3 47/35 48/65 50/65 50.1/0.5.
The nature of data set [14]: Other, Phenomenex Kinetex PFP, 100 × 4.6 mm, 5 µm, 45 °C, 0.6 mL/min, estimated dead time 1.8 min; A: water + 0.1% trifluoroacetic acid, pH 2; B: methanol; gradient (min/%B) 0/40 20/72 21/40.
Data set [15] can be described thus: RP, Merck LiChrospher RP-18, 250 × 4 mm, 5 µm, 35 °C, 0.3 mL/min, estimated dead time 6.7 min; A: water + 0.5% formic acid; B: acetonitrile + 0.5% formic acid; gradient (min/%B) 0/5 10/5 30/15 45/20 65/20 95/54 110/63 115/5 135/5.
The nature of data set [16]: RP, Waters ACQUITY UPLC BEH Shield RP18, 150 × 2.1 mm, 1.7 µm, 40 °C, 0.4 mL/min, estimated dead time 0.83 min; A: water + 0.1% formic acid, pH 3; B: acetonitrile + 0.1% formic acid, pH 3; gradient (min/%B) 0/0 30/50 31/100 37/100 37.1/0.
Data set [17] can be described thus: RP, Merck Supelco SUPELCOSIL LC-C18, 250 × 4.6 mm, 5 µm, 40 °C, 1 mL/min, estimated dead time 2.6 min; A: water + 0.1% trifluoroacetic acid, pH 2; B: acetonitrile + 0.1% trifluoroacetic acid, pH 2; gradient (min/%B) 0/5 45/35 47/75 49/35 50/5.
A short description of data set [18]: RP, Agilent ZORBAX RRHD Eclipse Plus C18, 50 × 2.1 mm, 1.8 µm, 30 °C, 0.4 mL/min, estimated dead time 0.28 min; A: water + 0.1% formic acid, pH 3; B: acetonitrile + 0.1% formic acid, pH 3; gradient (min/%B) 0/1 5/10 8/25 9.1/99 10/99 12/99.
Data set [19] is described as follows: RP, Agilent InfinityLab Poroshell 120 EC-C18, 100 × 3 mm, 2.7 µm, 25 °C, 0.4 mL/min, estimated dead time 1.1 min; A: water + 0.1% formic acid, pH 3; B: acetonitrile + 0.1% formic acid, pH 3; gradient (min/%B) 0/5 10/25 20/40 24/90 25/90 26/5 30/5.
Data set [20] can be described thus: RP, Phenomenex Kinetex EVO C18, 100 × 2.1 mm, 2.6 µm, 40 °C, 0.4 mL/min, estimated dead time 0.55 min; A: water + 0.2% formic acid; B: acetonitrile + 0.2% formic acid; gradient (min/%B) 0/5 0.5/5 7/95 8/95 8.5/5 12/5.
Data set [21] in a line: RP, Waters ACQUITY UPLC HSS T3, 100 × 2.1 mm, 50 °C; A: water + 0.1% formic acid, pH 3; B: 30% methanol + 70% acetonitrile + 0.1% formic acid, pH 3; gradient (min/%B) 0/5 1/8 2/15 3/40 4/70 4.5/100 5/100 6.4/100 6.6/5 6.8/5 7/5.

SMILES strings stand for the structures.

Consider `CC12CCc3occc3C1CCC13CC(CCC12)C(O)(CO)C3` (stereo unspecified) [Cafestol], for which the LC retention time in [1] is 2.42 min; in data set [2] it was 17.5 min; in data set [3], 50 min; in [4], 9.33 min; in data set [5], 8.2 min; in data set [6] it was 3.19 min. Moreover, the results for the LC retention time in data set [7], in data set [8] and in data set [9] were 37.9 min, 13.9 min and 4.04 min, respectively.
For the compound `O=C(C=Cc1ccc(O)c(O)c1)OC1CC(O)(C(=O)O)CC(O)C1O` (stereo unspecified) [Chlorogenic acid], the LC retention time in data set [10] was 5.31 min; in data set [11] it was 3.49 min; in [1], 1.81 min; in data set [2] it was 11 min; in data set [12], 3.17 min; in [13] it was 20 min. Further, the LC retention time is 4.03 min in [14]; 41.1 min in [15]; 12.3 min in data set [3]; 3.27 min in [4]; 7.05 min in data set [16]; 3.38 min in data set [5]. Besides, the LC retention time in data set [6] was 1.64 min; in [8], 8.02 min; in data set [17], 13.8 min; in data set [18], 4.49 min; in data set [19] it was 5.48 min.
On to `O=C(O)c1cc(O)c(O)c(O)c1` [Gallic acid], for which the LC retention time in data set [10] is 1.64 min; in data set [11], 1.22 min; in data set [1] it was 1.15 min; in data set [2] it was 2.69 min; in [12], 1.56 min; in data set [13] it was 13.9 min. Besides, the LC retention time in data set [14] was 3 min; in [15], 16.5 min; in data set [3], 5.35 min; in data set [4], 1.47 min; in [16] it was 2.41 min; in data set [5] it was 1.44 min. Further, the LC retention time is 1.5 min in data set [6]; 0.96 min in data set [20]; 4.98 min in [8]; 5.2 min in data set [17]; 0.713 min in [18]; 2.36 min in data set [19].
As for `O=S(=O)(O)Oc1c(O)cccc1O` [Pyrogallol 2-O-sulfate], the LC retention time in data set [10] was 2.36 min; in data set [11], 1.61 min; in data set [1], 1.49 min; in data set [3] it was 18.4 min; in data set [4], 1.76 min; in data set [16], 7.61 min. Further, the LC retention time was 1.4 min in data set [5]; 6.13 min in data set [8]; 1.34 min in data set [18]; 2.2 min in data set [9]; 3.99 min in data set [19].
In the case of `Cn1cnc2c1c(=O)[nH]c(=O)n2C` [Theobromine], the LC retention time in data set [1] was 1.45 min; in [2], 4.4 min; in data set [3], 6.29 min; in [4], 2.49 min; in data set [21] it was 2.12 min; in [16], 2.67 min. In addition, the LC retention time in data set [5] is 1.77 min; in [6], 1.39 min; in [8], 7.1 min; in data set [9], 2.05 min; in [19], 3.25 min.
As to `C[n+]1cccc(C(=O)[O-])c1` [Trigonelline], the LC retention time in data set [1] was 0.58 min; in data set [2] it was 0.62 min; in data set [16], 1.03 min; in [5], 0.771 min; in data set [8], 0.96 min; in [9], 2.72 min.
`O=c1oc2cc(O)ccc2c2ccccc12` [Urolithin B]: the LC retention time is 9.78 min in [11]; 3.72 min in data set [1]; 16 min in data set [2]; 44.4 min in [3]; 7.19 min in [4]; 22.6 min in data set [16]. The LC retention time is 6.54 min in [5], 12.2 min in [8], 3.47 min in [9] and 18.8 min in [19].
Regarding `COc1ccc(C(=O)O)cc1OC` [Veratric acid], the LC retention time in data set [11] is 6.87 min; in [2] it was 12 min; in data set [13], 33 min; in data set [3], 24.9 min; in data set [4], 4.84 min; in data set [5] it was 4.19 min. In addition, the results for the LC retention time in [8], in [9] and in data set [19] were 9.65 min, 2.4 min and 9.51 min, respectively.

The record behind these values is the RepoRT retention time repository (doi:10.1016/j.foodchem.2021.129757).
